In US11572347B2 (priority 2017, dated 2023):
Read-outs that look alike come from different tables or passages of the source. Each block holds one molecule with its values, some of them ahead of it.

Assays:
PDE4 = system: PDE4
Method: HEK293 cell culture and transfection: HEK293 cells were cultured in DMEM (Gibco life technologies) containing 10% FBS, 100 units/ml penicillin-streptomycin, and 2 mM L-glutamine. Cell transfections were performed with the PIE Transfection reagent (Qiagen) according to manufacturer's instructions.
Forster Resonance Energy Transfer (FRET):Measurements to track PKA activity. […] Images were acquired using a Zeiss AXIO inverted fluorescence microscope (Carl Zeiss micrscopy, LLC, Thomwood, N.Y.) with a 40× oil-emersion objective lens and a charge-coupled device camera controlled by Metafluor software (Molecular Devices, Sunnyvale, Calif.). […] Images were subjected to background subtraction, and were acquired every 30 seconds with exposure time of 200 ms. The donor/acceptor FRET ratio was calculated and normalized to the ratio value of baseline.
Statistics: Statistical analysis was performed using GraphPad Prism 6 software (La Jolla, Calif.). Results are shown as mean±SEM and were analyzed by one way ANOVA with post hoc Bonferroni's multiple compression test.

in vivo = conditions: rat
Method: All the animal experiments were performed according to the protocols approved by the Animal Use and Care Committee of University of California-Davis. Male Sprague-Dawley rats (n=4, 8 week old, 250-300 g) were used in the pharmacokinetic study of sEH/PDE4 dual inhibitors. […] Inhibitor was dissolved in 100% polyethylene glycol 300 to form a clear solution. […] Each blood sample was immediately transferred to a tube containing […] of water and mixed by Vortex for 1 min, all samples were stored at −80° C. until analysis.

[1] = system: inflammatory pain (rat TWL-LPS model); conditions: for TWL threshold time course (analgesic effect): over 4 h
Method: Control animals received a 50 μl saline intraplantar sham injection in the right back paw.
Student t-test was performed in Microsoft Excel with a significance of P<0.05. Results are shown as mean±SD.

[2] = over the following days post treatment
[3] = male, Sprague-Dawley, in vivo, 0.3 mg/kg
[4] = male, Sprague-Dawley, po, 3 mg/kg
[5] = male, Sprague-Dawley, po, 30 mg/kg
[6] = male, Sprague-Dawley, po, 100 mg/kg
[7] = rat TWL-LPS model, 1 mg/kg oral, 0.5 h
[8] = rat TWL-LPS model, 3 mg/kg oral, 0.5 h

concentration at 0 h (in vivo; [3]): 0 nM
concentration at 1 h (in vivo; [3]): 0 nM
concentration at 2 h (in vivo; [3]): 0 nM
concentration at 4 h (in vivo; [3]): 0 nM
concentration at 8 h (in vivo; [3]): 0 nM
concentration at 12 h (in vivo; [3]): 0 nM
concentration at 24 h (in vivo; [3]): 0 nM
concentration at 48 h (in vivo; [3]): 0 nM
Molecule: COc1ccc(CNC(=O)c2ccc(OC)c(OC3CCCC3)c2)c(C(F)(F)F)c1 [Compound 1, 3-(cyclopentyloxy)-4-methoxy-N-(4-methoxy-2-(trifluoromethyl)benzyl)benzamide]
Percentage change (PDE4): 240%

concentration at 0 h (in vivo; [3]): 0 nM
concentration at 0.5 h (in vivo; [3]): 4 ± 1.3 nM
concentration at 1 h (in vivo; [3]): 2 ± 0.3 nM
concentration at 2 h (in vivo; [3]): 2 ± 0.3 nM
concentration at 4 h (in vivo; [3]): 2 ± 0.2 nM
concentration at 8 h (in vivo; [3]): 1 ± 0.1 nM
concentration at 12 h (in vivo; [3]): 1 ± 0.2 nM
concentration at 24 h (in vivo; [3]): 0.3 ± 0.01 nM
concentration at 48 h (in vivo; [3]): 0 nM
plasma concentration reached (in words) (in vivo; cassette 0.3 mg/kg PO): one digit nM
Molecule: COc1ccc(CNC(=O)c2cccc(OC3CCCC3)c2)c(C(F)(F)F)c1 [Compound 19, 3-(Cyclopentyloxy)-N-(4-methoxy-2-(trifluoromethyl)benzyl)benzamide]
Percentage change (PDE4): 147%

Molecule: COc1ccc(CNC(=O)C2CCNCC2)c(C(F)(F)F)c1 [Compound 22, N-(4-Methoxy-2-(trifluoromethyl)benzyl)piperidine-4-carboxamide]
% cAMP increase rel. to Rolipram @ 1 μM (PDE4): higher cAMP increase than Rolipram
Percentage change (PDE4): 138%

Molecule: CCC(=O)N1CCC(C(=O)NCc2ccc(OC)cc2C(F)(F)F)CC1 [Compound 23/RBH61, N-(4-methoxy-2-(trifluoromethyl)benzyl)-1-propionylpiperidine-4-carboxamide]
concentration at 0 h (in vivo; [3]): 0 nM
concentration at 1 h (in vivo; [3]): 40 ± 12 nM
concentration at 2 h (in vivo; [3]): 25 ± 6 nM
concentration at 8 h (in vivo; [3]): 0 nM
concentration at 12 h (in vivo; [3]): 0 nM
concentration at 24 h (in vivo; [3]): 0 nM
concentration at 48 h (in vivo; [3]): 0 nM
concentration at 0 h (in vivo; [4]): 0 nM
concentration at 1 h (in vivo; [4]): 400 ± 15 nM
concentration at 2 h (in vivo; [4]): 120 ± 7 nM
concentration at 4 h (in vivo; [4]): 0 nM
concentration at 8 h (in vivo; [4]): 0 nM
concentration at 12 h (in vivo; [4]): 0 nM
concentration at 24 h (in vivo; [4]): 0 nM
concentration at 48 h (in vivo; [4]): 0 nM
time until compound is cleared from the blood (in vivo; [4]): 4 h
concentration at 0 h (in vivo; [5]): 0 nM
concentration at 1 h (in vivo; [5]): 805 nM
concentration at 2 h (in vivo; [5]): 527 nM
concentration at 8 h (in vivo; [5]): 29 nM
concentration at 12 h (in vivo; [5]): 0 nM
concentration at 24 h (in vivo; [5]): 0 nM
concentration at 48 h (in vivo; [5]): 0 nM
concentration at 0 h (in vivo; [6]): 0 nM
concentration at 1 h (in vivo; [6]): 1380 nM
concentration at 2 h (in vivo; [6]): 923 nM
concentration at 4 h (in vivo; [6]): 477 nM
concentration at 8 h (in vivo; [6]): 254 nM
concentration at 12 h (in vivo; [6]): 0 nM
concentration at 24 h (in vivo; [6]): 0 nM
concentration at 48 h (in vivo; [6]): 0 nM
bioavailability among the cassette compounds (in vivo; cassette 0.3 mg/kg PO): best bioavailability
time after which compound is cleared from plasma (in vivo; cassette 0.3 mg/kg PO): 4 h
TWL threshold in naïve animals (analgesic effect) ([1]; naïve rats, no LPS): no analgesic effect
TWL threshold at 0.5 h (pain relief vs LPS control) [1, 7]: significant pain relief
TWL threshold time course (analgesic effect) ([1]; rat TWL-LPS model, 1 mg/kg oral): pain relief
TWL threshold at 0.5 h (pain relief vs LPS control) [1, 8]: significant pain relief
TWL threshold time course (analgesic effect) ([1]; rat TWL-LPS model, 3 mg/kg oral): pain relief
analgesic effect compared to single target treatments and their combination ([1]; rat TWL-LPS model, 3 mg/kg, 0.5 h): significantly higher
urine excretion [2]: increase in urine excretion

Molecule: CCCC(=O)N1CCC(C(=O)NCc2ccc(OC)cc2C(F)(F)F)CC1 [Compound 24, 1-Butyryl-N-(4-methoxy-2-(trifluoromethyl)benzyl)piperidine-4-carboxamide]
Percentage change (PDE4): 110%

Molecule: CCN1CCC(C(=O)NCc2ccc(OC)cc2C(F)(F)F)CC1 [Compound 26, 1-ethyl-N-(4-methoxy-2-(trifluoromethyl)benzyl)piperidine-4-carboxamide]
Percentage change (PDE4): 62%

Molecule: COc1ccc(CNC(=O)C2CCN(C(=O)C3CC3)CC2)c(C(F)(F)F)c1 [Compound 28, 1-(cyclopropanecarbonyl)-N-(4-methoxy-2-(trifluoromethyl)benzyl)piperidine-4-carboxamide]
% cAMP increase rel. to Rolipram @ 1 μM (PDE4): 230 ± 15%

Molecule: TPPU [reference compound]
% cAMP increase rel. to Rolipram @ 1 μM (PDE4): 40 ± 10%
Percentage change (PDE4): 37%
mean FRET ratio change (PDE4): 1.015
TWL threshold at 0.5 h (pain relief vs LPS control) [1, 7]: do not result in an equal analgesic effect
TWL threshold at 0.5 h (pain relief vs LPS control) [1, 8]: significant pain relief
